Data taken from patent US9175022B2, “Compounds for the treatment of proliferative disorders” (Synta Pharmaceuticals Corp., priority 2005, dated 2015).

Key:
[1] = test system: HL-60-TX1000 (MDR); experiment: In vitro cytotoxicity, MTS assay, 72 hours; format: cell-based; details: Homo sapiens, HL60/TX1000, HL-60-TX1000 multi-drug resistant, read-out: IC50 (concentration required to inhibit 50% tumor cell growth)
Method: (§1) The in vitro cytotoxicity of the compounds of the invention was determined in the following human cell lines: HL-60, HL-60-TX1000 (MDR), MES-SA and MES-SA/DX5 (uterine sarcoma). MES-SA is a model of uterine sarcoma, and the cells are sensitive to a number of chemotherapeutic agents including doxorubicin, dactinomycin, mitomycin C, taxol and bleomycin. The MES-SA/Dx5 cell line was established in the presence of increasing concentrations of doxorubicin. […] All cells except HL-60-TX1000 were purchased from ATCC. HL-60, a model of myeloid leukemia, was from ATCC and HL60/TX1000 was a gift from Dr. Bhalla of Emory University School of Medicine. HL-60/TX1000 was isolated in vitro by subculturing HL-60 in progressively higher concentration of Taxol. HL-60/TX1000 cells over-express mdr-1 mRNA and p-glycoprotein, as determined by western blot and immunofluorescence labeling with antiPGP antibodies
(§2) The cell lines were maintained in RPMI1640 (GIBCO) supplemented with 10% FCS, 100 units/mL penicillin, 100 ug/ml streptomycin, and 2 mM L-glutamine. Cells were split every third day and diluted to a concentration of 2×10^5 cells/mL one day before the experiment was performed. All experiments were performed on exponentially growing cell cultures. Cell densities were 2.5×10^4 cells/mL in all experiments.
(§3) Test compounds were prepared by dissolving the compounds at a concentration of 10 mM in 100% DMSO. Final concentrations 10, 1, 0.1, 0.01 and 0.001 μM were obtained by diluting the stock solution directly into the tissue culture medium. Cells were incubated with varying concentrations of test compounds for 72 hours and the IC50 was determined by MTS (i.e. […]) assay. IC50 in this context stands for the concentration of a compound required to inhibit 50% tumor cell growth.

[2] = test system: HL-60; experiment: In vitro cytotoxicity, MTS assay, 72 hours; format: cell-based; details: Homo sapiens, HL-60, 72 hours, read-out: IC50 (concentration required to inhibit 50% tumor cell growth)
Method: as §1, §2, §3

[3] = test system: MES-SA/DX5 (uterine sarcoma); experiment: In vitro cytotoxicity, MTS assay, 72 hours; format: cell-based; details: Homo sapiens, MES-SA/DX5 multi-drug resistant, read-out: IC50 (concentration required to inhibit 50% tumor cell growth)
Method: as §1, §2, §3

[4] = test system: MES-SA; experiment: In vitro cytotoxicity, MTS assay, 72 hours; format: cell-based; details: Homo sapiens, read-out: IC50 (concentration required to inhibit 50% tumor cell growth)
Method: as §1, §2, §3

[5] = test system: MDA-MB-435S melanoma cells or RERF-LC-AI lung tumor cells; experiment: Anti-tumor activity in nude mouse xenograft models; format: in vivo; details: i.v.
Method: The human tumor cell line, MDA-MB-435S (ATCC #HTB-129; G. Ellison, et al., Mol. Pathol. 55:294-299, 2002), is obtained from the American Type Culture Collection (ATCC; Manassas, Va., USA). The human tumor cell line, RERF-LC-AI (RCB0444; S. Kyoizumi, et al., Cancer. Res. 45:3274-3281, 1985), is obtained from the Riken Cell Bank (RCB; Tsukuba, Ibaraki, Japan). The cell lines are cultured in growth media prepared from 50% Dulbecco's Modified Eagle Medium (high glucose), 50% RPMI Media 1640, 10% fetal bovine serum (FBS), 1% 100×L-glutamine, 1% 100× Penicillin-Streptomycin, 1% 100× sodium pyruvate and 1% 100×MEM non-essential amino acids. FBS is obtained from ATCC and all other reagents are obtained from Invitrogen Corp. (Carlsbad, Calif., USA). […] The supernatant is aspirated and the cell pellet is resuspended in 10 mL of growth media and the cell number is determined using a hemocytometer. […]
Tumors are then permitted to develop in vivo until they reached approximately 100-200 mm^3 in volume, which typically required 2-3 weeks following implantation. Tumor volumes (V) are calculated by caliper measurement of the width (W), length (L) and thickness (T) of tumors using the following formula: V=0.5326×(L×W×T). […]

[6] = test system: CHO-α-tubulin-YFP or MCF7-α-tubulin-YFP cells; experiment: Inhibition of tubulin polymerization, tubulin-YFP fluorescence imaging; format: cell-based; details: living or fixed cells, fluorescence microscopy
Source text: Wild-type Chinese Hamster Ovary cells (WT CHO) cells are maintained in Ham's F-12 medium supplemented with 10% fetal bovine serum (FBS; HyClone, Logan, Utah). Cells of low density (−20%) growing on 2-well chambered cover-slips (Labtek (Campbell, Calif.) or Fisher Scientific) are transfected with a mammalian expression vector encoding α-tubulin-YFP (Clontech, Palo Alto, Calif.) with the use of FuGENE 6 (Roche Molecular Biochemicals, Indianapolis, Ind.), according to the manufacturer's instructions. Twenty-four hours after transfection, the cells are cultured in 400 μg/ml G418 (Invitrogen, Carlsbad, Calif.)-containing selection medium for 2 weeks. Living cells are examined using a fluorescent microscope for α-tubulin-YFP expression. […] Expressed tubulin-YFP is detected as a single band in Western blots. […]
CHO-α-tubulin-YFP or MCF7-α-tubulin-YFP cells are cultured in 2-well chambered cover-slips (Labtek (Campbell, Calif.) or Fisher Scientific) for 24 hours before treatment with a compound of the invention. […] Tubulin-YFP fluorescence in living cells or fixed cells is captured using a standard filter for FITC and objectives of 20× or 60× magnification on a Nikon TE300 microscope with a Leica DC50 color digital camera (Leica, Bannockburn, Ill.) or a CoolSnap HQ monochrome CCD camera (Photonetrics, Tucson, Ariz.). […]

[7] = test system: CV-1 cells; experiment: Microtubule disruption in cells resistant to colchicine and vincristine; format: cell-based; details: 500 nM; 24, 48 and 72 hr
Method: The effects of compounds of the invention on microtubules can be studied in CV-1 cells. The microtubules of CV-1 cells are known to be resistant to the depolymerizing effects of colchicine and vincristine. CV-1 cells are treated with 500 nM of a compound of the invention, or vincristine or colchicines. At 24, 48 and 72 hr the cells are fixed and stained to examine microtubule structure. In cells treated with compounds of the invention, microtubule structures are expected to be diminished compared to untreated cells.

Structure (SMILES)	IC50 [1]	IC50 [2]	IC50 [3]	IC50 [4]	overt toxicity (effect on body weights) ([5]; nude mice)	tubulin-YFP labeled microtubule pattern [6]	microtubule structure [7]	tumor growth ([5]; 3 days per week, 9-10 doses, compounds 6.25, 12.5 and 25 mg/kg, paclitaxel 7.5 mg/kg)
COc1ccc(-c2cnnn2-c2cc(OC)c(OC)c(OC)c2)cc1 [Compound 3, 1-(3,4,5-trimethoxy-phenyl)-5-(4-methoxy-phenyl)-1H-[1,2,3]triazole]	0.02 µM	0.053 µM	0.037 µM	0.052 µM	minimal			
COc1cc(-n2nncc2-c2ccc(N(C)C)cc2)cc(OC)c1OC [Compound 5, 1-(3,4,5-trimethoxy-phenyl)-5-[4-(N,N-dimethylamino)-phenyl]-1H-[1,2,3]triazole]	0.0075 µM	0.0415 µM	0.029 µM	0.0685 µM				
CC(=O)O[C@H]1C(=O)[C@@]2(C)[C@H]([C@H](OC(=O)c3ccccc3)[C@]3(O)C[C@H](OC(=O)[C@H](O)[C@@H](NC(=O)c4ccccc4)c4ccccc4)C(C)=C1C3(C)C)[C@]1(OC(C)=O)CO[C@@H]1C[C@@H]2O [Taxol, paclitaxel, reference compound]	1 µM	0.002 µM	5 µM	0.005 µM		microtubule bundle formation		
COc1cc2c(c(OC)c1OC)-c1ccc(OC)c(=O)cc1[C@@H](NC(C)=O)CC2 [colchicines, colchicine]							Disorganized but clear microtubule structures	
CC(=O)O[C@H]1C(=O)[C@@]2(C)[C@H]([C@H](OC(=O)c3ccccc3)[C@]3(O)C[C@H](OC(=O)[C@H](O)[C@@H](NC(=O)c4ccccc4)c4ccccc4)C(C)=C1C3(C)C)[C@]1(OC(C)=O)CO[C@@H]1C[C@@H]2O [paclitaxel, reference compound]								decreased tumor growth
CC[C@]1(O)C[C@H]2CN(CCc3c([nH]c4ccccc34)[C@@](C(=O)OC)(c3cc4c(cc3OC)N(C=O)[C@H]3[C@@](O)(C(=O)OC)[C@H](OC(C)=O)[C@]5(CC)C=CCN6CC[C@]43[C@@H]65)C2)C1 [vincristine, Vincristine]							Disorganized but clear microtubule structures	
